ChEMBL document CHEMBL1153290, “Development of multitargeted inhibitors of both the insulin-like growth factor receptor (IGF-IR) and members of the epidermal growth factor family of receptor tyrosine kinases” (Bioorg Med Chem Lett, 2009)
The source made the active and inactive calls. No cut-off for these calls is given here.

Assays:
[1] = target: T1, Receptor tyrosine-protein kinase erbB-2 (Homo sapiens, UniProt P04626); test: Inhibition of ErbB2 phosphorylation in IGF1 and EGF-stimulated human N87 cells pretreated for 6 hrs before IGF1 and EGF stimulation by ELISA; type: cell-based, NCI-N87
T1 sequence (P04626 whole entry): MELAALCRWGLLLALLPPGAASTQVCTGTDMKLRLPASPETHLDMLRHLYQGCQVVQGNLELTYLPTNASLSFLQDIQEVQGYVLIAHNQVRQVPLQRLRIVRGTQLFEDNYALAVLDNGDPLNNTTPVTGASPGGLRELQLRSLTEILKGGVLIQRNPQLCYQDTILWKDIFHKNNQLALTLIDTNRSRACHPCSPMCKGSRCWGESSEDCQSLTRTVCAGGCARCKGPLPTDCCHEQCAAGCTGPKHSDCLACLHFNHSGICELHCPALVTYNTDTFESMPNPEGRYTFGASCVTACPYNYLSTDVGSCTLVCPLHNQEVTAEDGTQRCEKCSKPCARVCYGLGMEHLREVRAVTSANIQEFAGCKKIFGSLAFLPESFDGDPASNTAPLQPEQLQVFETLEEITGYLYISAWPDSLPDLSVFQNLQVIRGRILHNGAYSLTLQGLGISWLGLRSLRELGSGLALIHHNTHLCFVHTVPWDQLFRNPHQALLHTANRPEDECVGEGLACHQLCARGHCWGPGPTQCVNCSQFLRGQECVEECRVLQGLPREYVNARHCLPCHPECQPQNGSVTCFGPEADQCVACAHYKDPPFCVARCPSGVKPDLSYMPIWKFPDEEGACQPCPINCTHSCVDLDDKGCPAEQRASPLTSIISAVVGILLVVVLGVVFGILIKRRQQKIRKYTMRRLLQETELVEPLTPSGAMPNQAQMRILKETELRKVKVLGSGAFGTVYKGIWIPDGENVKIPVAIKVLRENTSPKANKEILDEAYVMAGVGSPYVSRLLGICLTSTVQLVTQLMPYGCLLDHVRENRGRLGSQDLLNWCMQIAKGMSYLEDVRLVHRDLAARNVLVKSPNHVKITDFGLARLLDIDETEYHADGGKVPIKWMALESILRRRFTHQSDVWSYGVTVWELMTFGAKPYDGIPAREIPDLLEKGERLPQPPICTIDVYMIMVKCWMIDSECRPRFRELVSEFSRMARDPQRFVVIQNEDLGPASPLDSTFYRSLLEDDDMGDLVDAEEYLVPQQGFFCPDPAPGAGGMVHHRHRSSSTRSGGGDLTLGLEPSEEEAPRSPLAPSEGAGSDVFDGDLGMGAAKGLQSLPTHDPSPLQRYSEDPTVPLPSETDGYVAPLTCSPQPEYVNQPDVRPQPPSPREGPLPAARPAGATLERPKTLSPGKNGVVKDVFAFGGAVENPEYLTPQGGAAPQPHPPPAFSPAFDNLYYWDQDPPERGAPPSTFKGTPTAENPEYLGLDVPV

[2] = target: T2, Insulin-like growth factor 1 receptor (Homo sapiens, UniProt P08069); test: Inhibition of IGF1R by time resolved fluorescence assay
T2 sequence (P08069 31-736 limits assumed): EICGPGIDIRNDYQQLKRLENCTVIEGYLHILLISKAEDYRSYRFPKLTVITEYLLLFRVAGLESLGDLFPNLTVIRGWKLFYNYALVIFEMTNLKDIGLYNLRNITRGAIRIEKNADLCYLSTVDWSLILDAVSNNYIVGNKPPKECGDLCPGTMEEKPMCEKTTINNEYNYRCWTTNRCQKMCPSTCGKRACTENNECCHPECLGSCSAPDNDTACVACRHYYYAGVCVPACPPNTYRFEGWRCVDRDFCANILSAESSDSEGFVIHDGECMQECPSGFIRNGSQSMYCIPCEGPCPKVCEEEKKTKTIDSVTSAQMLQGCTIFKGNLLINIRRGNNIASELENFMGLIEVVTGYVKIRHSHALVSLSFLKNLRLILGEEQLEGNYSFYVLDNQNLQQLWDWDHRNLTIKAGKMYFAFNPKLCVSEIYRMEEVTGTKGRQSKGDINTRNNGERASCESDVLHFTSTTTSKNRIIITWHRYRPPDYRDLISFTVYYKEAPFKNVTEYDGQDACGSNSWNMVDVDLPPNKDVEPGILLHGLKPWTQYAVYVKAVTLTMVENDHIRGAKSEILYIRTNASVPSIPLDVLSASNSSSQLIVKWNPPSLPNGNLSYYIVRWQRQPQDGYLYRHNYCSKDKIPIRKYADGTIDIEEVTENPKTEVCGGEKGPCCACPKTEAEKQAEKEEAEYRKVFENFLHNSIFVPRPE
T2 sequence (P08069 741-1367 limits assumed): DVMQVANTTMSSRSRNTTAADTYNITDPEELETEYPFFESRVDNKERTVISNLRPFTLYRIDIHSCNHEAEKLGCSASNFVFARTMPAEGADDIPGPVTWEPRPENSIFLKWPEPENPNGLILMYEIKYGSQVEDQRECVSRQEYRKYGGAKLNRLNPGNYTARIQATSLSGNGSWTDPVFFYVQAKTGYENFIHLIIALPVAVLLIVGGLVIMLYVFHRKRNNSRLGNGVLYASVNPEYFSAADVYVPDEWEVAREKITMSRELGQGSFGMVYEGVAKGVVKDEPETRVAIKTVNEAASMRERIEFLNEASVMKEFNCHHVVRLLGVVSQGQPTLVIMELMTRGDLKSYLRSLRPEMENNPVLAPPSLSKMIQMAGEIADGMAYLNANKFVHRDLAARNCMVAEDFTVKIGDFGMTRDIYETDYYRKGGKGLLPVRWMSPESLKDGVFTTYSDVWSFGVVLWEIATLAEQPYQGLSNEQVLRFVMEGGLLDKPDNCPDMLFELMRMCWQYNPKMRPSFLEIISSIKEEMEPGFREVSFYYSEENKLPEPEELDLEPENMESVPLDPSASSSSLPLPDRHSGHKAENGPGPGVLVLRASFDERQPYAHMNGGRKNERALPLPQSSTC

[3] = target: T2, Insulin-like growth factor 1 receptor; test: Inhibition of IGF1R phosphorylation in IGF1 and EGF-stimulated human MiaPaCa2 cells pretreated for 6 hrs before IGF1 and EGF stimulation by ELISA; type: cell-based
[4] = target: T1, Receptor tyrosine-protein kinase erbB-2; test: Inhibition of ErbB2 by time resolved fluorescence assay
[5] = target: Epidermal growth factor receptor (Homo sapiens, UniProt P00533, L858R)
Chain of Epidermal growth factor receptor (Homo sapiens, UniProt P00533, L858R) (P00533 25-1210 L858R limits assumed): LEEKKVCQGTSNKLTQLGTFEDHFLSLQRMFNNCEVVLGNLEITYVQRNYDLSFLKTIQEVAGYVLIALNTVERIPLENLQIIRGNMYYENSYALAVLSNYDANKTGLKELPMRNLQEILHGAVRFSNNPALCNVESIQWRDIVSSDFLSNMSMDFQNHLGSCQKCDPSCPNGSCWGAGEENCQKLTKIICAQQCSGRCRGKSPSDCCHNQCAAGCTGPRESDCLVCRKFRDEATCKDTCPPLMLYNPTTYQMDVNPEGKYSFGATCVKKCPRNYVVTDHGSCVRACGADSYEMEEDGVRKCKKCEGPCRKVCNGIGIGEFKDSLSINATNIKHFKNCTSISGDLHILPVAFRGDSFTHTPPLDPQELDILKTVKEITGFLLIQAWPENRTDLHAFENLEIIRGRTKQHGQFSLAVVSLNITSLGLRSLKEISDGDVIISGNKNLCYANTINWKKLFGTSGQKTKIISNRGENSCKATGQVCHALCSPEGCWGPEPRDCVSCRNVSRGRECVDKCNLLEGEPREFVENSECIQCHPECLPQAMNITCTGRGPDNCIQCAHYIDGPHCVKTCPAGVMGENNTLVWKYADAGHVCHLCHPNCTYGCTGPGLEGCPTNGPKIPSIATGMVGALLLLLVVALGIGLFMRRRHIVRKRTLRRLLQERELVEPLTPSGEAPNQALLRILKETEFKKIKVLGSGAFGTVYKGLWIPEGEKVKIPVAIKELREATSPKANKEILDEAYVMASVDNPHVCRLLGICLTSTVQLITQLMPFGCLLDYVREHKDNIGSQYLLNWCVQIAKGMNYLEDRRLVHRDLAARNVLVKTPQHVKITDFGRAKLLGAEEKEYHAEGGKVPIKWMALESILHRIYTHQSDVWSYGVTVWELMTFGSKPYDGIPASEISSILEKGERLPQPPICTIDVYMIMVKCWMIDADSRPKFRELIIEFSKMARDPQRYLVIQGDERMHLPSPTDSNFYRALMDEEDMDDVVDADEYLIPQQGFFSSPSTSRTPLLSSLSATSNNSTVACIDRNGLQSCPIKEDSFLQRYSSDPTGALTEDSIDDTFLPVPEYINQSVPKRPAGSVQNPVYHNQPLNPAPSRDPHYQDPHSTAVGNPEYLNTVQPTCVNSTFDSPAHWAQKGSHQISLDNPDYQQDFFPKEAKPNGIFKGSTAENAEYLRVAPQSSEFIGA

[6] = target: Epidermal growth factor receptor (Homo sapiens, UniProt P00533); test: Inhibition of EGFR phosphorylation in IGF1 and EGF-stimulated human MiaPaCa2 cells pretreated for 6 hrs before IGF1 and EGF stimulation by ELISA; type: cell-based
Chain of Epidermal growth factor receptor (Homo sapiens, UniProt P00533) (P00533 whole entry): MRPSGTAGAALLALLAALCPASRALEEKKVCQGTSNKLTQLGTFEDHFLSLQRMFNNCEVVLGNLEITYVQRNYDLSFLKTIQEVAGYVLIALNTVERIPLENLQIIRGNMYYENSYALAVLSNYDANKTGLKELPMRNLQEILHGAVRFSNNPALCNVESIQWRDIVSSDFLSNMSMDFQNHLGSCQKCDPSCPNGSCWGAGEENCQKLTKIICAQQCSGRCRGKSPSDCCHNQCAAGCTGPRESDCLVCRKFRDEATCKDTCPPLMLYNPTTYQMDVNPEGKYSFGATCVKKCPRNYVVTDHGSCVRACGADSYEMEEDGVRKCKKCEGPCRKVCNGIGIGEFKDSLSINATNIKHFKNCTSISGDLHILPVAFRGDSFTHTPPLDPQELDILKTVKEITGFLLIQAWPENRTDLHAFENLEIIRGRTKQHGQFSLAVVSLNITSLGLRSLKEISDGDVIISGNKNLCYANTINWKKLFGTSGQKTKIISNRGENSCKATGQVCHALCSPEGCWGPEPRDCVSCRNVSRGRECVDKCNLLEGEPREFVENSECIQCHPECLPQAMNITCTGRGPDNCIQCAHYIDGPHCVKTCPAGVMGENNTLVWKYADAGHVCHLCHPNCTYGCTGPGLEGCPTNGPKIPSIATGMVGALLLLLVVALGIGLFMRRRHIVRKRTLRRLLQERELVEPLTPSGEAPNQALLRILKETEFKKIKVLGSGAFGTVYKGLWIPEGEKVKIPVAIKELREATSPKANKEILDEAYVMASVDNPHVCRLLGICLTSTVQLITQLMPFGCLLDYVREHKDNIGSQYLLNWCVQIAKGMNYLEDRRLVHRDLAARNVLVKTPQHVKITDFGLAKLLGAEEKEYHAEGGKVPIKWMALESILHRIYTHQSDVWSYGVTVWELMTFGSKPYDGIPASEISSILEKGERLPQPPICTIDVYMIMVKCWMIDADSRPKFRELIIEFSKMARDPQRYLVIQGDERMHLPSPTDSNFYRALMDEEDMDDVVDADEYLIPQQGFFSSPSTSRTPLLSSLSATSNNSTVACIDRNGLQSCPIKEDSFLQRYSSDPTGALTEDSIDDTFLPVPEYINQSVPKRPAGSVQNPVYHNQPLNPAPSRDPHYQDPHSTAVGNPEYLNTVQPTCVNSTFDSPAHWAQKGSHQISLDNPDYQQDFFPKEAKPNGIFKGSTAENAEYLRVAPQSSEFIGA

[7] = Clearance in mouse; type: ADME, organism-based; conditions: in vivo
Mus musculus [8] = test: Dose normalized AUC in po dosed mouse; type: ADME, organism-based; conditions: in vivo
Mus musculus [9] = test: Inhibition of IGF1R phosphorylation in IGF1 and EGF-stimulated mouse lung at 50 mg/kg, ip pretreated 4 hrs before IGF1 and EGF stimulation; type: functional, organism-based; design: dose 50 mg/kg
[10] = Half life in mouse; type: ADME, organism-based; conditions: in vivo
Mus musculus [11] = test: Inhibition of IGF1R phosphorylation in IGF1 and EGF-stimulated mouse lung at 50 mg/kg, po pretreated 4 hrs before IGF1 and EGF stimulation; type: functional, organism-based; design: dose 50 mg/kg
Mus musculus [12] = test: Dose normalized AUC in ip dosed mouse; type: ADME, organism-based; conditions: in vivo
Mus musculus [13] = test: Dose normalized AUC in iv dosed mouse; type: ADME, organism-based; conditions: in vivo
Cytochrome P450 3A4 = Cytochrome P450 3A4 (Homo sapiens, UniProt P08684); test: Inhibition of human CYP3A4; type: ADME
[14] = Protein binding in human plasma; type: ADME, cell-free; conditions: read-out: PPB (converted)
Cytochrome P450 2C9 = Cytochrome P450 2C9 (Homo sapiens, UniProt P11712); test: Inhibition of human CYP2C9; type: ADME
[15] = Bioavailability in ip dosed mouse; type: ADME, organism-based; conditions: in vivo
[16] = Oral bioavailability in mouse; type: ADME, organism-based; conditions: in vivo
Mus musculus [17] = test: Inhibition of EGFR phosphorylation in IGF1 and EGF-stimulated mouse liver at 50 mg/kg, ip pretreated 4 hrs before IGF1 and EGF stimulation; type: functional, organism-based; design: dose 50 mg/kg
[18] = Aqueous solubility at pH 7.2; type: physicochemical; conditions: buffer
Cytochrome P450 2D6 = Cytochrome P450 2D6 (Homo sapiens, UniProt P10635); test: Inhibition of human CYP2D6; type: ADME
Mus musculus [19] = test: Inhibition of EGFR phosphorylation in IGF1 and EGF-stimulated mouse liver at 50 mg/kg, po pretreated 4 hrs before IGF1 and EGF stimulation; type: functional, organism-based; design: dose 50 mg/kg

Compound | EC50 [1] [µM] | IC50 [2] [µM] | EC50 [3] [µM] | IC50 [4] [µM] | IC50 [5] [µM] | EC50 [6] [µM] | other results
CCOC(=O)N1CCN([C@H]2CC[C@H](n3nc(-c4ccc5nc(Cc6ccccc6OC)[nH]c5c4)c4c(N)ncnc43)CC2)CC1 | 1.6 | 0.309 | 0.247 | 0.27 | 0.03 | 0.52 | 
Nc1ncnc2c1c(-c1ccc3nc(Cc4ccccc4)[nH]c3c1)nn2[C@H]1CC[C@H](N2CCOCC2)CC1 |  |  |  | 0.186 | 0.27 |  | 
Nc1ncnc2c1c(-c1ccc3nc(Cc4ccccc4Cl)[nH]c3c1)nn2[C@H]1CC[C@H](N2CCOCC2)CC1 |  | 0.036 |  | 0.664 | 0.065 |  | 
Nc1ncnc2c1c(-c1ccc3nc(Cc4cccs4)[nH]c3c1)nn2[C@H]1CC[C@H](N2CCOCC2)CC1 |  | 0.025 |  | 0.25 | 0.361 |  | 
COc1ccccc1Cc1nc2ccc(-c3nn([C@H]4CC[C@H](N5CCOCC5)CC4)c4ncnc(N)c34)cc2[nH]1 |  |  |  | 0.053 |  |  | 
COc1ccccc1Cc1nc2ccc(-c3nn([C@H]4CC[C@H](N5CCN(C(C)=O)CC5)CC4)c4ncnc(N)c34)cc2[nH]1 | 0.66 | 0.027 | 0.143 | 0.059 | 0.13 | 0.742 | 
COCCCN1CCN([C@H]2CC[C@H](n3nc(-c4ccc5nc(Cc6ccccc6OC)[nH]c5c4)c4c(N)ncnc43)CC2)CC1 | 0.094 | 0.081 | 0.115 | 0.054 | 0.058 | 0.085 | clearance [7]: 7.83 mL/min/kg; AUC (Mus musculus [8]): 0.42 µmol·h/L/mg/kg; inhibition (Mus musculus [9]): Active; half-life [10]: 3.1 h; inhibition (Mus musculus [11]): Active; AUC (Mus musculus [12]): 2.71 µmol·h/L/mg/kg; AUC (Mus musculus [13]): 3.5 µmol·h/L/mg/kg; IC50 (Cytochrome P450 3A4): > 20 µM; fraction unbound [14]: 0.033; IC50 (Cytochrome P450 2C9): > 20 µM; bioavailability [15]: 100%; bioavailability [16]: 12%; inhibition (Mus musculus [17]): Active; solubility [18]: > 30 µM; IC50 (Cytochrome P450 2D6): 1.6 µM; inhibition (Mus musculus [19]): Active
COc1ccccc1Cc1nc2ccc(-c3nn([C@H]4CC[C@H](N5CCN(CC6CC6)CC5)CC4)c4ncnc(N)c34)cc2[nH]1 | 0.147 | 0.04 | 0.19 | 0.013 | 0.003 | 0.091 | 
COc1ccccc1Cc1nc2ccc(-c3nn([C@H]4CC[C@H](N5CCNCC5)CC4)c4ncnc(N)c34)cc2[nH]1 | 0.21 | 0.026 | 0.711 | 0.044 | 0.03 | 0.335 | 
COc1ccccc1Cc1nc2ccc(-c3nn([C@H]4CC[C@H](N5CCN(C(=O)N(C)C)CC5)CC4)c4ncnc(N)c34)cc2[nH]1 | 1.58 | 0.069 | 0.208 | 0.017 | 0.025 | 0.808 | 
